Reference: US20120251511A1, “COMPOSITION AND PRODUCTS FOR ENABLING THE PRODUCTION OF EQUOL IN VIVO” (priority 2011, published 2012)

Columns and labels:
[1] = HPLC/EC determination of daidzein and equol levels in blood serum and urine after the BLDG formula; details: for concentration at 1 day / concentration at 7 day / concentration at 21 day: human, oral; for concentration at 1 day: Day 1, plasma; for concentration at 7 day: Day 7, plasma
Method: The subject's diet was limited to 20 grams of saturated fat per day. The subject also consumed a healthy amount of grains, fruits and vegetables.
Blood serum and urine samples were taken on days 1, 7 and 21 and the samples were sent to an independent laboratory for analysis.
Equol in the blood serum was tested (untreated) as unbound to sex hormone-binding globulin (SHBG).

[2] = in vitro; cited from earlier work
[3] = test system: androgenic alopecia (hair loss); assay: Observed effects on androgenic alopecia (hair loss); assay type: in vivo, human; details: inulin supplements 4 grams daily, one individual
From the text: The goal of the first experiment, performed in June 2006, was to investigate the ability for the BLDG formula to show both objective and subjective results. Objective results included blood and urine samples testing for the presence of equol. Subjective results included the documentation of observed effects on androgenic alopecia (hair loss) and acne vulgaris.
The test subject was a person, in good overall health. Subject was physically active, had adequate nutrition and was not taking any drugs or supplements that were known to cause hair loss or acne.
The subject was experiencing a high degree of shedding of the hair from areas of the scalp consistent with male pattern baldness. Miniaturization of the hair follicles on the scalp was noticeable along the hair line, part line and vertex upon close observation. […] Generally, the subject would have been considered a Class II on the Norwood-Hamilton scale, but with some increased vertex thinning more attributable to a Class III.

[4] = Day 21, urine, BLDG formula regimen equivalent to Example 1
[5] = plasma, unbound equol, Mean, BLDG formula regimen equivalent to Example 1
[6] = plasma, unbound equol, ng/ml I, BLDG formula regimen equivalent to Example 1
[7] = plasma, unbound equol, ng/ml II, BLDG formula regimen equivalent to Example 1

In the case of O=c1c(-c2ccc(O)cc2)coc2cc(O)ccc12 [Daidzein, 4,7-Dihydroxyisoflavone], the “daidzein, Mean” value [1, 4] is reported as 43974.11 ng/mL, the “daidzein, ng/ml I” value [1, 4] is reported as 44246.59 ng/mL and the “daidzein, ng/ml II” value [1, 4] is reported as 43701.63 ng/mL. For the same molecule, the “increase in daidzein levels between Day 7 and Day 21” value ([1]; blood serum, BLDG formula) was 45%.

In the case of Oc1ccc([C@H]2COc3cc(O)ccc3C2)cc1 [S-equol], the “increase in equol concentration between Day 7 and Day 21” value ([1]; blood serum, BLDG formula) is reported as 3%, the concentration at 1 day [1, 5] is reported as 0 ng/mL and the concentration at 7 day [1, 5] is reported as 127 ng/mL. The concentration at 21 day ([1]; plasma, unbound equol, Mean, Day 21, plasma, BLDG formula regimen equivalent to Example 1) was 131 ng/mL, the concentration at 1 day [1, 6] was 0 ng/mL and the concentration at 7 day [1, 6] was 137 ng/mL. For the same molecule, the concentration at 21 day ([1]; plasma, unbound equol, ng/ml I, Day 21, plasma, BLDG formula regimen equivalent to Example 1) was 122 ng/mL, the concentration at 1 day [1, 7] was 0 ng/mL and the concentration at 7 day [1, 7] was 117 ng/mL. It also gave a concentration at 21 day ([1]; plasma, unbound equol, ng/ml II, Day 21, plasma, BLDG formula regimen equivalent to Example 1) of 141 ng/mL, a concentration at 21 day ([1]; urine, equol, Mean, Day 21, urine, BLDG formula regimen equivalent to Example 1) of 638 ng/mL and a concentration at 21 day ([1]; urine, equol, ng/ml I, Day 21, urine, BLDG formula regimen equivalent to Example 1) of 613 ng/mL. The concentration at 21 day ([1]; urine, equol, ng/ml II, Day 21, urine, BLDG formula regimen equivalent to Example 1) was 662 ng/mL and the “blood levels that may be required to fully mitigate DHT at normal levels of circulation in men” value [2] was 100 ng/mL.

In the case of inulin, the “effect of added inulin on BLDG dosage needed” value [3] is reported as “able to cut his BLDG dosage in half”.
